Measurements taken from US8748624B2, “Picolinamido-propanoic acid derivatives useful as glucagon receptor antagonists” (Janssen Pharmaceutica NV, priority 2011, dated 2014).
Like-named read-outs stand apart in the source and are kept apart here.

Columns and labels:
[1] = molecular target: human GCGR (Homo sapiens (Human), UniProt P47871); experiment: Cellular functional assay, cAMP readout (glucagon-stimulated cAMP in HEK293 cells expressing human GCGR); assay type: cell-based; conditions: hGluc-1 HEK cells
Protocol: IC50 Values in Cellular Functional Assays: cAMP Readout
Full-length human GCGR (Accession Number: NM000160) subcloned into pcDNA3.1 was stably transfected into HEK293 cells (hGluc-1 HEK) and maintained under G418 selection (500 μg/mL). Cell cultures were maintained in DMEM/F12 media supplemented with 10% FBS and 1% GlutaMax. Glucagon stimulated cAMP was quantified using LANCE technology as per manufacturer instructions. On the day of the experiment, spent media was removed and cells were washed with Hank's Buffered Saline solution (HBSS) and cells were harvested with non-enzymatic cell dissociation solution, then washed once with HBSS. Cells were re-suspended in stimulation buffer at a concentration of 0.83×10^6 cells/ml and cAMP detection antibody was added. 6 μl/well of this solution was then dispensed in a 384 well plate (cell density 5000 cells/well). Test compound was serially diluted in DMSO and 50 nl were dispensed on top of the cell solution and allowed to incubate for 30 minutes. 6 μl of a 2× glucagon solution (final concentration in assay […]) was then added and the reaction was terminated after 5 minutes with the addition of detection mix. The mixture was incubated, protected from light for 1.5 h. cAMP levels were quantified by TR-FRET in an EnVision instrument against a known standard. IC50's were generated by using a non-linear regression macro driven in Excel and converted to K, values.

[2] = molecular target: human glucagon receptor (GCGR) (Homo sapiens (Human), UniProt P47871); experiment: Inhibition of 125I-glucagon binding to membranes from HEK293 cells expressing the human glucagon receptor
Protocol: Inhibition ^125I-Glucagon Binding to Membranes from HEK293 Cells Expressing the Human Glucagon Receptor (GCGR)
Full-length human GCGR (Accession Number: NM000160) subcloned into pcDNA3.1 was stably transfected into HEK293 cells (hGluc-1 HEK) and maintained under G418 selection (500 μg/mL). Cell cultures were maintained in DMEM/F12 media supplemented with 10% FBS and 1% GlutaMax. Membranes were prepared from these cells as follows: cells were harvested from T225 flasks and re-suspended in hypotonic lysis buffer, 50 mM HEPES pH 7.4 supplemented with Complete Protease inhibitors (Boehringer Mannheim, Indianapolis, Ind.). Cells were dounced 20 times on ice and spun at 700×g to remove nuclei and unlysed cells. The resulting pellet was re-suspended in hypotonic lysis buffer and the above step was repeated. Supernatants from the low speed centrifugation were combined and subsequently spun at 100K×g for 1 hr at 4° C. and the resulting pellet was re-suspended in buffer containing 50 mM HEPES pH 7.4 and 10% sucrose and the protein concentration was adjusted at 1 mg/mL as determined in the BCA assay. Membranes were aliquoted and stored at −80° C. The binding assay was performed by a filtration method in a 384 well format. Membranes at a final protein concentration of 6 μg/well were incubated with ^125I-glucagon at 0.3 nM and in the presence of compound for 2 hours at room temperature in a total reaction volume of 40 μL per well. Assay buffer consisted of 50 mM HEPES, pH 7.4, 5 mM MgCl2, 1 mM CaCl2 and 0.2% BSA. 30 μL of the reaction was then transferred to PEI treated filter plates and followed by filter aspiration. Plates were then washed 5× and allowed to dry at room temperature overnight. The next day the bottom of the plate was covered with seal tape and scintillant was added. Total counts retained by the filters were quantified with a Top Count instrument. IC50's were generated by using a non-linear regression macro driven in Excel and converted to K's.

[3] = LANCE TR-FRET, IC50 converted to Ki, average if tested more than once
[4] = membranes of hGluc-1 HEK cells, 125I-glucagon 0.3 nM, 2 hours room temperature, IC50 converted to Ki, average if tested more than once

Sequence of human glucagon receptor (GCGR) (P47871 26-477): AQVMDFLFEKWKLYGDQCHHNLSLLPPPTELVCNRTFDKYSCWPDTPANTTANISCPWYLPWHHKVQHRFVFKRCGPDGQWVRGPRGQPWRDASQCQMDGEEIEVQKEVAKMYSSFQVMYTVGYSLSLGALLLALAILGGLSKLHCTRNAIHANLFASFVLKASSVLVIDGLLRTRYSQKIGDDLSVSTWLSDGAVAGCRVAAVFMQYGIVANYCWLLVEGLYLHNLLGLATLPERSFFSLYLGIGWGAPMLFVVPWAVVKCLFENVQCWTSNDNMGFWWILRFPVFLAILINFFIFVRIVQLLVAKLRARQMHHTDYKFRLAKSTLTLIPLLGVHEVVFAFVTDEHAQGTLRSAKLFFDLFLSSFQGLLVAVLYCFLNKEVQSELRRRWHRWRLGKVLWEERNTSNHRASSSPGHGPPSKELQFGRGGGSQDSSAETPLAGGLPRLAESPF
Sequence of human GCGR (P47871 26-477): as above

| Ki [1, 3] [nM] | Ki [2, 4] [nM] | Ki [2] [nM] | Ki ([1]; meta-substituted comparative compounds (Table 3)) [nM] | Ki ([2]; meta-substituted comparative compounds (Table 3), membranes of hGluc-1 HEK cells, 125I-glucagon 0.3 nM) [nM] | SMILES |
| --- | --- | --- | --- | --- | --- |
| 50.5 | 43.8 |  |  |  | O=C(O)CCNC(=O)c1ccc(-c2cc(Cl)ccc2C(=O)Nc2ccc(-c3ccc(Cl)cc3)cc2)cn1 [Compound 16, 3-(5-(5-chloro-2-((4% chloro-[1,1′-biphenyl]-4-yl)carbamoyl)phenyl)picolinamido)propanoic acid] |
| 90.6 | 33.9 |  |  |  | O=C(O)CCNC(=O)c1ccc(-c2cc(Cl)ccc2CNc2ccc(-c3ccc(F)cc3)cc2)cn1 [Compound 15, 3-(5-(5-chloro-2-(((4′-fluoro-[1,1′-biphenyl]-4-yl)amino)methyl)phenyl)picolinamido)propanoic acid] |
| 390 | 139 |  |  |  | Cc1cccc(-c2ccc(C(=O)NCCC(=O)O)nc2)c1CNc1ccc(-c2ccc(Cl)cc2)cc1 [Compound 65, 3-(5-(2-(((4′-chloro-[1,1′-biphenyl]-4-yl)amino)methyl)-3-methylphenyl)picolinamido)propanoic acid] |
| 12.2 | 18.8 |  |  |  | O=C(O)CCNC(=O)c1ccc(-c2cc(C(F)(F)F)cc(Cl)c2CNc2ccc(-c3ccc(Cl)cc3)cc2)cn1 [Compound 67, 3-(5-(3-chloro-2-(((4′-chloro-[1,1′-biphenyl]-4-yl)amino)methyl)-5-(trifluoromethyl)phenyl)picolinamido)propanoic acid] |
| 210 | 64.9 |  |  |  | O=C(O)CCNC(=O)c1ccc(-c2ccc(Cl)cc2CNc2ccc(-c3ccc(Cl)cc3)cc2)cn1 [Compound 4, 3-(5-(4-chloro-2-(((4′-chloro-[1,1′-biphenyl]-4-yl)amino)methyl)phenyl)picolinamido)propanoic acid] |
| 7.1 | 14.9 |  |  |  | O=C(O)CCNC(=O)c1ccc(-c2cc(C(F)(F)F)cc(Cl)c2CNc2ccc(-c3ccc(Cl)cc3)c(Cl)c2)cn1 [Compound 74, 3-(5-(3-chloro-2-(((2,4′-dichloro-[1,1′-biphenyl]-4-yl)amino)methyl)-5-(trifluoromethyl)phenyl)picolinamido)propanoic acid] |
| 110 | 31.2 |  |  |  | O=C(O)CCNC(=O)c1ccc(-c2cc(Cl)ccc2CNc2ccc(-c3ccc(Cl)cc3)c(Cl)c2)cn1 [Compound 10, 3-(5-(5-chloro-2-(((2,4′-dichloro-[1,1′-biphenyl]-4-yl)amino)methyl)phenyl)picolinamido)propanoic acid] |
| 121 |  | 22.9 |  |  | O=C(O)CCNC(=O)c1ccc(-c2cc(Cl)ccc2CNc2ccc(-c3ccc(F)cc3Cl)c(Cl)c2)cn1 [Compound 138, 3-(5-(5-chloro-2-(((2,2′-dichloro-4′-fluoro-[1,1′-biphenyl]-4-yl)amino)methyl)phenyl)picolinamido)propanoic acid] |
| 600 | 139 |  |  |  | O=C(O)CCNC(=O)c1ccc(-c2cc(F)c(F)cc2C(=O)Nc2ccc(-c3ccc(F)cc3)cc2)cn1 [Compound 95, 3-(5-(4,5-difluoro-2-((4′-fluoro-[1,1′-biphenyl]-4-yl)carbamoyl)phenyl)picolinamido)propanoic acid] |
| 50.5 | 40.1 |  |  |  | O=C(O)CCNC(=O)c1ccc(-c2cc(Cl)ccc2CNc2ccc(-c3ccc(Cl)cc3)cc2)cn1 [Compound 6, 3-(5-(5-chloro-2-(((4′-chloro-[1,1′-biphenyl]-4-yl)amino)methyl)phenyl)picolinamido)propanoic acid] |
| 106 | 28.2 |  |  |  | COc1ccc(-c2ccc(NCc3ccc(Cl)cc3-c3ccc(C(=O)NCCC(=O)O)nc3)cc2)c(Cl)c1 [Compound 143, 3-(5-(5-chloro-2-(((2′-chloro-4′-methoxy-[1,1′-biphenyl]-4-yl)amino)methyl)phenyl)picolinamido)propanoic acid] |
| 425 | 61.1 |  |  |  | O=C(O)CCNC(=O)c1ccc(-c2cc(Cl)ccc2CNc2ccc(-c3cc(F)cc(F)c3)cc2)cn1 [Compound 137, 3-(5-(5-chloro-2-(((3′,5′-difluoro-[1,1′-biphenyl]-4-yl)amino)methyl)phenyl)picolinamido)propanoic acid] |
| 68.9 | 22.9 |  |  |  | O=C(O)CCNC(=O)c1ccc(-c2cc(F)c(F)cc2CNc2ccc(-c3ccc(Cl)cc3)c(Cl)c2)cn1 [Compound 103, 3-(5-(2-(((2,4′-dichloro-[1,1′-biphenyl]-4-yl)amino)methyl)-4,5-difluorophenyl)picolinamido)propanoic acid] |
|  |  |  | > 10400 | > 5400 | O=C(O)CCNC(=O)c1ccc(-c2cc(Cl)cc(C(=O)Nc3ccc(-c4ccc(Cl)cc4)cc3)c2)cn1 [Compound M5, 3-(5-(3-chloro-5-((4′-chloro-[1,1′-biphenyl]-4-yl)carbamoyl)phenyl)picolinamido)propanoic acid, reference compound] |
| 31.6 | 24 |  |  |  | Cc1cc(NCc2cc(Cl)c(C(F)(F)F)cc2-c2ccc(C(=O)NCCC(=O)O)nc2)ccc1-c1ccc(Cl)cc1 [Compound 79, 3-(5-(4-chloro-2-(((4′-chloro-2-methyl-[1,1′-biphenyl]-4-yl)amino)methyl)-5-(trifluoromethyl)phenyl)picolinamido)propanoic acid] |
| 6.7 | 27.8 |  |  |  | Cc1cc(NCc2c(Cl)cc(C(F)(F)F)cc2-c2ccc(C(=O)NCCC(=O)O)nc2)ccc1-c1ccc(Cl)cc1 [Compound 75, 3-(5-(3-chloro-2-(((4′-chloro-2-methyl-[1,1′-biphenyl]-4-yl)amino)methyl)-5-(trifluoromethyl)phenyl)picolinamido)propanoic acid] |
| 22.4 | 22.5 |  |  |  | O=C(O)CCNC(=O)c1ccc(-c2cc(C(F)(F)F)ccc2CNc2ccc(-c3cccc(C(F)(F)F)c3Cl)c(Cl)c2)cn1 [Compound 38, 3-(5-(2-(((2,2′-dichloro-3′-(trifluoromethyl)-[1,1′-biphenyl]-4-yl)amino)methyl)-5-(trifluoromethyl)phenyl)picolinamido)propanoic acid] |
| 95.1 | 67.3 |  |  |  | O=C(O)CCNC(=O)c1ccc(-c2cc(Cl)ccc2C(=O)Nc2ccc(-c3ccc(F)cc3F)cc2)cn1 [Compound 36, 3-(5-(5-chloro-2-((2′,4′-difluoro-[1,1′-biphenyl]-4-yl)carbamoyl)phenyl)picolinamido)propanoic acid] |
| 1850 | 68.7 |  |  |  | N#Cc1cccc(CNc2ccc(-c3ccc(Cl)cc3)cc2)c1-c1ccc(C(=O)NCCC(=O)O)nc1 [Compound 66, 3-(5-(2-(((4′-chloro-[1,1′-biphenyl]-4-yl)amino)methyl)-6-cyanophenyl)picolinamido)propanoic acid] |
| 64.2 | 26.3 |  |  |  | O=C(O)CCNC(=O)c1ccc(-c2cc(C(F)(F)F)ccc2CNc2ccc(-c3ccc(Cl)cc3F)cc2)cn1 [Compound 40, 3-(5-(2-(((4′-chloro-2′-fluoro-[1,1′-biphenyl]-4-yl)amino)methyl)-5-(trifluoromethyl)phenyl)picolinamido)propanoic acid] |
| 38.7 |  |  |  |  | COc1cc(C(F)(F)F)cc(-c2ccc(C(=O)NCCC(=O)O)nc2)c1CNc1ccc(-c2ccc(C(F)(F)F)cc2Cl)cc1 [Compound 161, 3-(5-(2-(((2′-chloro-4′-(trifluoromethyl)-[1,1′-biphenyl]-4-yl)amino)methyl)-3-methoxy-5-(trifluoromethyl)phenyl)picolinamido)propanoic acid] |
| 195 |  |  |  |  | N#Cc1cc(NCc2ccc(Cl)cc2-c2ccc(C(=O)NCCC(=O)O)nc2)ccc1-c1ccc(Cl)c(C(F)(F)F)c1 [Compound 98, 3-(5-(5-chloro-2-(((4′-chloro-2-cyano-3′-(trifluoromethyl)-[1,1′-biphenyl]-4-yl)amino)methyl)phenyl)picolinamido)propanoic acid] |
